This assay deals with T1, hASBT (Homo sapiens, UniProt Q12908).
T1 sequence (Q12908 1-348): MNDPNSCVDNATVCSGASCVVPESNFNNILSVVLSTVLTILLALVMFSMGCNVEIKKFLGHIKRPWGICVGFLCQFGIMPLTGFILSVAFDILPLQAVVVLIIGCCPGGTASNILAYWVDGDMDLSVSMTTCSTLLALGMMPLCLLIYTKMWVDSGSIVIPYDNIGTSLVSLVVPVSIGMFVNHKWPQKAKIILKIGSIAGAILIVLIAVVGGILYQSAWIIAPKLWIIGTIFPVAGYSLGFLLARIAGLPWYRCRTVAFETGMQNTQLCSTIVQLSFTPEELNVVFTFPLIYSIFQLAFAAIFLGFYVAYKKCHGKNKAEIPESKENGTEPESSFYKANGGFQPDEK
Kind of assay: Conjugate uptake into hASBT-MDCK cells in the presence of sodium. The class given is cell-based.

For `C[C@H](CCC(=O)NCCS(=O)(=O)O)[C@H]1CC[C@H]2[C@@H]3[C@H](O)C[C@@H]4C[C@H](O)CC[C@]4(C)[C@H]3C[C@H](O)[C@]12C` [taurocholate, Taurocholate], the Vmax is on record as 0.699 pmol/cm^2/s.

The record behind these values is article PMC2997912 (Molecular pharmaceutics, 2010).
